The subject of one test is LoVo. Description: CellTiter-Glo luminescent cell viability assay (ATP quantification), LoVo. It counts as cell-based. The following applies: colorectal carcinoma cells, 72 h treatment, viable cells by ATP luminescence, class symbols. The method, then:
(§1) Influence of the test compounds on viability (proliferation) of cell lines used was investigated in concentration range 0-100 μmol·l^−1.
Adherent cell line LoVo is a permanent in vitro culture derived from tissue of a patient with colorectal carcinoma. LoVo cell line was cultivated in DMEM medium (Sigma-Aldrich, cat. no. D8437) with addition of 2 mmol·l^−1 glutamine (Invitrogen, see above), 10% fetal bovine serum (FBS, Sigma-Aldrich, see above), 100 IU/ml peniciline, 100 μg/ml streptomycine (Sigma-Aldrich, see above). Passaging was performed twice a week. After washing of cells with sterile PBS, the cells were released by 0.25% trypsin/EDTA (Sigma-Aldrich, see above) at 37° C. for 2 minutes. The trypsin was inactivated by addition of 2 volumes of complete medium, cells were then centrifuged (250×g, 5 min), resuspended, and transferred in the amount needed into a new cultivation bottle with fresh medium. Population doubling time of LoVo cell line was 39 h under the cultivation conditions used.
(§2) In order to test the sensitivity of the cell lines towards the studied helquats, cytotoxity test for cell viability assessment based on ATP quantification in cell lysates was used (CellTiter-Glo® Luminescent Cell Viability Assay, Promega, cat. no. G7571). In this test, ATP in cell lysates is detected using luciferase reaction. Luminescence intensity correlates with the ATP level and thus with quantity of metabolically active (viable) cells. IC50 value serves as the output, that is the concentration of the test compound which leads to 50% reduction in number of viable cells as compared to control, untreated population. To this end, IC50 value reflects efficiency of the test compound with regard to the given cell line.
(§3) Cells in the exponential growth phase were seeded into a 96-well microtiter plate were plated at 3000 cells per well. Each well contained 90 μl of cell suspension. The next day, 10 μl of 10× concentrated test compound solutions were added. The effect of helquats was investigated in concentration range 1 to 100 μmol·l^−1 (e.g. 1; 2.5; 5; 7.5; 10; 15; 25; 50 and 100 μmol·l^−1). Apart from the section containing the concentration series of the test compound, each well contained 2 control columns, the first with pure medium (so called blank) and the second with cells in medium without the test compounds (control). Into wells containing controls and blanks, volume of solvent (water) equal to the volume of added compound solutions was added. After 72 h of incubation with the test compounds viability was determined according to the manufacturer's instructions. In short: microtiter well plate was left 30 min to reach the room temperature after it has been removed from the incubator. Then, into each well, 100 μl of the prepared detection agent was added. Next, the well plate was shaken for 2 min to complete the full lysis. Next, after the well had been left in the dark for 15 min, the luminescence was measured in each well using luminometer (Tecan Genios, Austria).
(§4) IC50 value represents concentration of the test compound, which leads to 50% reduction of viable cells (inhibition of cell growth) after 72 h of the treatment. Each helquat concentration was tested in triplicates in a IC50 quantification and at least 3 independent IC50 quantification experiments were performed. IC50 values over 100 μmol·l^−1 were obtained by extrapolation of data measured in concentration range 0-100 μmol·l^−1 for the given helquat.
Background: In ATP-based viability assays light output follows the ATP content of the culture.

A further test has as its system CCRF-CEM. The test can be described thus: CellTiter-Glo luminescent cell viability assay (ATP quantification), CCRF-CEM. The following applies: acute lymphoblastic leukemia cells, 72 h treatment, viable cells by ATP luminescence. The test is classed as cell-based. The method, then: as §1
Suspension cell line CCRF-CEM is a permanent in vitro culture of acute lymphoblastic leukemia. CCRF-CEM cell line was cultivated in RPMI 1640 medium (Sigma-Aldrich, cat. no. R8758) with addition of 2 mmol·l^−1 glutamine (Invitrogen, cat. no. 35050-038), 10% fetal bovine serum (FBS, Sigma-Aldrich, cat. no. F9665), 100 IU/ml peniciline, 100 μg/ml streptomycine (Sigma-Aldrich, cat. no. P0781). Passaging was performed 2-3× a week. Population doubling time of CCRF-CEM cell line was 20 h under the cultivation conditions used.
as §2, §3, §4

The test system of the next test is HeLa. Description: CellTiter-Glo luminescent cell viability assay (ATP quantification), HeLa. It counts as cell-based. The conditions noted are these: cervical cancer cells, 72 h treatment, viable cells by ATP luminescence. On the procedure: as §1
Adherent cell line HeLa is a permanent in vitro culture derived from cervical cancer. HeLa cell line was cultivated in RPMI 1640 medium (Dutch modification) (Sigma-Aldrich, cat. no. R7638) with addition of 2 mmol·l^−1 glutamine (Invitrogen, see above), 10% fetal bovine serum (FBS, Sigma-Aldrich, see above), 100 IU/ml peniciline, 100 μg/ml streptomycine (Sigma-Aldrich, see above). Passaging was performed twice a week. After washing of cells with sterile PBS the cells were released by 0.25% trypsin/EDTA (Sigma-Aldrich, cat. no. T4049) at 37° C. for 2 minutes. The trypsin was inactivated by addition of 2 volumes of complete medium, cells were then centrifuged (250×g, 5 min), the cell pellet was resuspended, and transferred in the amount needed into a new cultivation bottle with fresh medium. Population doubling time of […] cell line was 25 h under the cultivation conditions used.
as §2, §3, §4

The subject of another test is HL-60. Description: CellTiter-Glo luminescent cell viability assay (ATP quantification), HL-60. It counts as cell-based. The conditions noted are these: acute promyelocytic leukemia cells, 72 h treatment, viable cells by ATP luminescence. The method, then: as §1
Suspension cell line HL-60 is a permanent in vitro culture of acute promyelocytic leukemia. HL-60 cell line was cultivated in RPMI 1640 medium (Sigma-Aldrich, see above) with addition of 2 mmol·l^−1 glutamine (Invitrogen, see above), 10% fetal bovine serum (FBS, Sigma-Aldrich, see above), 100 IU/ml peniciline, 100 μg/ml streptomycine (Sigma-Aldrich, see above). Passaging was performed 2-3× a week. Population doubling time of HL-60 cell line was 23 h under the cultivation conditions used.
as §2, §3, §4

The next test relates to HUVEC. Description: CellTiter-Glo luminescent cell viability assay (ATP quantification), HUVEC normal cells. The test is classed as cell-based, human. The following applies: 72 h treatment. The method, then: as §1
Normal human endothelial cells from umbilical vein are adherent cells cultivated in plastic Petri dishes coated with collagen I. Into the cultivation medium (E-STIM™; BD Biosciences, cat. co. 355054) already containing 2% FBS (fetal bovine serum), hydrocortisone and heparin the following two further ingredients were added: epidermal growth factor (EGF, 5 μg) and mixture of factors facilitating growth of endothelial cells (ECGS, 100 mg). […] The cells were passaged after reaching 90% confluency by dissociation using 0.25% solution of trypsin/EDTA (1 ml; 3 min; 37° C.). After that 5 ml of complete cultivation medium E-STIM™ was added and the cells were centrifuged (180×g, 7 min), the pellet was resuspended, and transferred in the amount needed into a new Petri dish with fresh medium. The cells were used in experiments between the 3rd and the 8th passage after defreezing. Population doubling time of HUVEC cell line was 38 h under the cultivation conditions used.
as §2, §3, §4

The IC50 is the concentration needed to halve the response being measured. For the compound `Cc1c(C)c2c(c3c1CC[n+]1ccc(/C=C/c4ccc(N(C)C)cc4)cc1-3)-c1c3ccccc3cc[n+]1CC2` [(M)-1, (M)-(E)-13-(4-(dimethylamino)styryl)-6,7-dimethyl-4,5,8,9-tetrahydroiso-quinolino[1,2-a]pyrido[1,2-k][2,9]phenanthroline-3,10-diium trifluoromethanesulfonate], the IC50 is 11 to 50 µM in the test with LoVo; less than 10 µM with CCRF-CEM; less than 10 µM with HeLa; less than 10 µM in the test on HL-60; more than 150 µM in the test with HUVEC (normal human endothelial cells, numeric bound, values over 100 obtained by extrapolation of data measured at 0-100 μmol·l−1).

`COc1ccc(/C=C/c2cc[n+]3c(c2)-c2c(c(C)c(C)c4c2-c2c5ccccc5cc[n+]2CC4)CC3)cc1` [(M)-6, (M)-(E)-13-(4-methoxystyryl)-6,7-dimethyl-4,5,8,9-tetrahydroisoquinolino[1,2-a]pyrido[1,2-k][2,9]phenanthroline-3,10-diium trifluoromethanesulfonate]: the IC50 is 11 to 50 µM in the test on LoVo (Homo sapiens, LoVo); 11 to 50 µM with CCRF-CEM (Homo sapiens, CCRF-CEM); 11 to 50 µM in the test with HeLa (Homo sapiens, HeLa); 11 to 50 µM in the test on HL-60 (Homo sapiens, HL-60); more than 150 µM with HUVEC (HUVEC, normal human endothelial cells, numeric bound, values over 100 obtained by extrapolation of data measured at 0-100 μmol·l−1).

Take `COc1ccc2cc(/C=C/c3cc[n+]4c(c3)-c3c(c(C)c(C)c5c3-c3c6ccccc6cc[n+]3CC5)CC4)ccc2c1` [(M)-7, (M)-(E)-13-(2-(6-methoxynaphthalene-2-yl)vinyl)-6,7-dimethyl-4,5,8,9-tetrahydroisoquinolino[1,2-a]pyrido[1,2-k][2,9]phenanthroline-3,10-diium trifluoromethanesulfonate]: the half-inhibitory concentration (IC50) was 11 to 50 µM with LoVo; less than 10 µM in the test with CCRF-CEM; less than 10 µM in the test with HeLa; less than 10 µM with HL-60; 51 to 150 µM in the test with HUVEC (normal human endothelial cells from umbilical vein, viable cells by ATP luminescence, class symbols).

The record behind these values is patent publication US9340543B2, “Helquat derivatives, preparation thereof, and use thereof as medicaments” (USTAV ORGANICKE CHEMIE A BIOCHEMIE AKADEMIE VED CR, V.V.I., priority 2013, dated 2016).
